Data: patent US20240123022A1, “A STABLE ANTI-ANGIOGENIC AND ANTI-INFLAMMATORY PHARMACEUTICAL FORMULATION AND PHARMACEUTICAL COMBINATION FOR TREATMENT AND PREVENTION OF PSORIASIS” (priority 2021, published 2024)
Read-outs that look alike come from different tables or passages of the source.

Tests used:
[1] = tested on: TPA induced ear inflammation model in C57BL/6 mice; assay: IS217 alone and in combination with methotrexate and betamethasone in TPA induced ear inflammation model; format: in vivo
Protocol: The experimental procedure, doses and route of administration were same as IMQ model. Test item IS217 was administered subcutaneously either alone or in combination with standard methotrexate (MTX) and betamethasone (BD) to diseased animals.

[2] = tested on: isolated rabbit erythrocyte; format: cell-based
Protocol: This study was conducted to test whether IS217 induced haemolysis or not. The study was conducted in IV intended concentration.

[3] = Stability of IS217 1% cream, long term 30° C. ± 2° C./65% RH; format: physicochemical; conditions: 24 months at room temperature
Protocol: The purpose of stability testing is to provide evidence on how the quality of a drug product varies with time under the influence of a variety of environmental factors such as temperature, humidity, etc. and to establish a re-test period for the drug substance or a shelf life for the drug product and recommended storage conditions. The study was conducted according to the WHO and schedule-Y guidelines.
The drug product was manufactured by Issar Pharma. Three batches were manufactured at pilot scale level by the same synthetic route as, and using a method of manufacture and procedure that simulates the final process to be used for, production batches. The overall quality of the batches of drug product placed on these stability studies will be representative of the quality of the material to be made on a production scale.
A soft squeezable plastic tube will be used as primary packing material. The tube is a cylindrical, hollow piece with a rounded shape design.
This study has included testing of those attributes of the drug product that are susceptible to change during storage and are likely to influence quality, safety and/or efficacy. The testing was covered, as appropriate, the physical and chemical attributes. […]

human plasma proteins [4] = tested on: human plasma proteins
Protocol: (§1) Test item at concentration of about 100 μg/ml was incubated with human plasma at 37° C. in water bath for about 1 hour. About 500 μL of test solution was transferred to ultrafiltration devices and centrifuged for about 15 minutes at about 13000 rpm and at 37° C. and analyzed using HPLC method.

EA.hy926 cells = assay: Induction of DNA fragmentation in human endothelial cell line; format: cell-based
Protocol: EA.hy926 cells, a well reported in vitro model to study the anti-angiogenic potential used for assessing apoptotic effect of IS217 through induction of DNA fragmentation. Cell conditions were maintained using DMEM, about 10% FBS, CO2 incubator and serum starved using 1% FBS. The starved cells were treated with IS217 in the concentrations of 100 μg/ml, 500 μg/ml, 1000 μg/ml, 2000 μg/ml, 5000 μg/ml and incubated for about 48 hours. Anthralin in concentrations of 0.1 μM and 0.5 μM was used as positive control.
The fragmented DNA after lysis was precipitated using PEG/NaCl solution and incubated with 0.2 μg/ml of Hoechst 33258 dye, fluorescence was read at 360 ex/460 em using Biotek synergy HT multimode reader.

Topoisomerase II enzyme = biological target: T1, Topoisomerase II enzyme (Homo sapiens, UniProt P11388); assay: Topoisomerase II inhibition (kinetoplast DNA decatenation, agarose gel); format: biochemical
T1 construct: purchased TopoGen TG2000H-1
T1 sequence (P11388 whole entry): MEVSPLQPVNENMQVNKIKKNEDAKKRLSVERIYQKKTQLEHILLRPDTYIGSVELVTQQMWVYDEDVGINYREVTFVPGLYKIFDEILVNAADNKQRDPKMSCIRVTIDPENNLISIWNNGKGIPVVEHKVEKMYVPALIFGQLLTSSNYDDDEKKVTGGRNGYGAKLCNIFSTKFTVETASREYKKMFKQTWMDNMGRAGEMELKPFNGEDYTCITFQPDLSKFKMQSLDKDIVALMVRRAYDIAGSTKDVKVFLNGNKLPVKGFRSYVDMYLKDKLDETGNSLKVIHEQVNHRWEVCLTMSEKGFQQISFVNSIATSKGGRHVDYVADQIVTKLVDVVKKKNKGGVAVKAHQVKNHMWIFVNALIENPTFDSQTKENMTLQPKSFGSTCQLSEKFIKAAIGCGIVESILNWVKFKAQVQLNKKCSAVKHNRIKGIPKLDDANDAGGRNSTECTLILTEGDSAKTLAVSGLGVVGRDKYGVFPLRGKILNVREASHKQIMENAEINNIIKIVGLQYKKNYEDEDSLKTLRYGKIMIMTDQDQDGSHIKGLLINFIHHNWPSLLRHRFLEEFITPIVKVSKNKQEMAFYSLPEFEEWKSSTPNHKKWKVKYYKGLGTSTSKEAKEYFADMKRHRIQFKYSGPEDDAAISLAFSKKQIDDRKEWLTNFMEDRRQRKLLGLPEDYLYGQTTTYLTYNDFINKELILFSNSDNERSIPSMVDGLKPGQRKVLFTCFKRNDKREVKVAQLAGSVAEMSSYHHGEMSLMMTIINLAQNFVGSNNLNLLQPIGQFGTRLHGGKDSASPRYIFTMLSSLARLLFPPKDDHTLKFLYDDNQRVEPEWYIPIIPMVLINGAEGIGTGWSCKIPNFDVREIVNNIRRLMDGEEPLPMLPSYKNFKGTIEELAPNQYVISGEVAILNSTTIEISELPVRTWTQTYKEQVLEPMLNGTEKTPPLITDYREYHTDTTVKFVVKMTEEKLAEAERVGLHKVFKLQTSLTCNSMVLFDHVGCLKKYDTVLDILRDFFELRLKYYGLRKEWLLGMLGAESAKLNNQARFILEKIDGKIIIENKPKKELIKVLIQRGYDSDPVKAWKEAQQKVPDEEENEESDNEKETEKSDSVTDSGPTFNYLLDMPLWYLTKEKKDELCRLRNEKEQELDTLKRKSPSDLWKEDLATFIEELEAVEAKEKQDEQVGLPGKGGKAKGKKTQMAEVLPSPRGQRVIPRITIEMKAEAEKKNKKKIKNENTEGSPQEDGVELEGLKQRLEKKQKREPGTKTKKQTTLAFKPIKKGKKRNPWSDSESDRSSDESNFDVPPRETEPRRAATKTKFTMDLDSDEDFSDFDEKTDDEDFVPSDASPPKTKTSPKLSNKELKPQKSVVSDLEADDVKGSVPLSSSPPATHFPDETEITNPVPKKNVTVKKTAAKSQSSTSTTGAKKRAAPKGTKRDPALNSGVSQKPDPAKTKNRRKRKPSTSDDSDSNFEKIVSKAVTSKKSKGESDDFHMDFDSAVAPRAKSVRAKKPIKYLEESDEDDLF
Protocol: Topoisomerase II inhibitory potential of IS217 was evaluated using widely reported kinetoplast DNA as test system in presence of Topoisomerase II enzyme. IS217 was tested at concentrations ranging from 0.01 μg/ml to 1 mg/ml. Doxorubucin hydrochloride and nalidixic acid were used as positive controls at the concentration of 10 μM and 1 mg/ml, respectively.
Inhibition of release of decatenated KDNA products was used as a specific marker to assess the inhibitory activity of IS217 on topoisomerase II enzyme, which was determined by using 1% agarose gel electrophoresis.

human plasma proteins [5] = assay: in vitro
Protocol: as §1

in vitro = conditions: human, microsomes
Protocol: Metabolic stability assay was performed to determine in vitro half-life and intrinsic clearance of test item. […] Following centrifugation, the supernatant was analyzed on HPLC-UV.

[6] = IS217 SC 1.2 mg/kg q.d., 10 days

H-FAKKFAKKFK-OH [IS217, H-Phe-Ala-Lys-Lys-Phe-Ala-Lys-Lys-Phe-Lys-OH]
inhibition of healthy unstimulated cells (CC50 experiment) (HUVEC): no inhibition | inhibition of VEGF stimulated HUVEC cells (HUVEC; VEGF stimulated): dose dependent inhibition | ear thickness (absolute, histopathology, ear punch biopsy) ([1]; IS217 (1.2 mg/kg) < MTX (1.5 mg/kg), p < 0.01): Decreased ear | edema and hyperkeratosis [1, 6]: IS217 decreased | inflammatory cytokines in ear homogenate (ELISA and histopathology score) IL-23, IL-6, TNF-α and MPO [1, 6]: IS217 decreased | inhibitory activity against TPA induced increase in ear thickness ([1]; IS217 alone (SC 1.2 mg/kg q.d. per Table 6)): 44.77% | effect in combination with MTX ([1]; TPA model combination study): good effect | absolute ear thickness ([1]; alone as well as in combination with standard drugs): significant reduction | mean hemoglobin value compared with negative control and positive control [2]: non-significant | mean haemolytic index ([2]; red cells of rabbit): 0% | stability of drug product (1% cream) [3]: stable | Shelf life of IS217 API: about 2 years | appearance of reconstituted solution (0.9% sodium chloride): clear and colourless | Dissolution of the lyophilized powder completed in (reconstitution with 0.9% sodium chloride): less than 2 minutes | binding affinity to human plasma proteins (human plasma proteins [4]): moderate binding affinity | induction of DNA fragmentation (EA.hy926 cells; EA.hy926, 1000 μg/ml, 48 h): 24.53% | percentage of induction of DNA fragmentation (EA.hy926 cells; EA.hy926, 2000 μg/ml and 5000 μg/ml): significant decrease | topoisomerase II enzyme inhibition (Topoisomerase II enzyme; 0.01 μg/ml to 10 μg/ml): no topoisomerase II enzyme inhibition | topoisomerase II enzyme inhibition (Topoisomerase II enzyme; 100 μg/ml): some extent of inhibition | topoisomerase II enzyme inhibition (Topoisomerase II enzyme; 1 mg/ml, highest tested concentration): better inhibition | fraction unbound at 1 hour, 100 μg/ml (human plasma proteins [5]): 0.466 | fraction unbound at 1 hour, 100 μg/ml (human plasma proteins [5]; free fraction): 0.466 ± 0.03 | half-life at 100 μg/ml (in vitro): 47.9 min | metabolised at 1 h, 100 μg/ml (in vitro): ~58% | microsomal CLint at 100 μg/ml (in vitro): 14.5 µL/min/mg
